Values of other authors in US8580300B2, “Pharmaceutical formulation for treating the upper digestive tract” (Dr. Falk Pharma GmbH, priority 2008, dated 2013).

Details: budesonide resorbed in the stomach/digestive tract

share of the absorbed budesonide metabolised by the first-pass effect: 90%
SMILES: CCCC1O[C@@H]2C[C@H]3[C@@H]4CCC5=CC(=O)C=C[C@]5(C)[C@H]4[C@@H](O)C[C@]3(C)[C@]2(C(=O)CO)O1 (stereo partly drawn) [budesonide, 16,17-(butylidenebis(oxy))-11,21-dihydroxy-(11-β,16-α)-pregna-1,4-diene-3,20-dione]
